Source: patent US8501446B2 (Vertex Pharmaceuticals Incorporated, priority 2004, dated 2013)

Assays:
Assay type in all cases: biochemical
JAK3 = target: T1, JAK3 (Homo sapiens, UniProt P52333); assay: JAK3 inhibition assay (standard radioactive enzyme assay); conditions: average Ki if more than one value determined
T1 sequence (P52333 1-1124): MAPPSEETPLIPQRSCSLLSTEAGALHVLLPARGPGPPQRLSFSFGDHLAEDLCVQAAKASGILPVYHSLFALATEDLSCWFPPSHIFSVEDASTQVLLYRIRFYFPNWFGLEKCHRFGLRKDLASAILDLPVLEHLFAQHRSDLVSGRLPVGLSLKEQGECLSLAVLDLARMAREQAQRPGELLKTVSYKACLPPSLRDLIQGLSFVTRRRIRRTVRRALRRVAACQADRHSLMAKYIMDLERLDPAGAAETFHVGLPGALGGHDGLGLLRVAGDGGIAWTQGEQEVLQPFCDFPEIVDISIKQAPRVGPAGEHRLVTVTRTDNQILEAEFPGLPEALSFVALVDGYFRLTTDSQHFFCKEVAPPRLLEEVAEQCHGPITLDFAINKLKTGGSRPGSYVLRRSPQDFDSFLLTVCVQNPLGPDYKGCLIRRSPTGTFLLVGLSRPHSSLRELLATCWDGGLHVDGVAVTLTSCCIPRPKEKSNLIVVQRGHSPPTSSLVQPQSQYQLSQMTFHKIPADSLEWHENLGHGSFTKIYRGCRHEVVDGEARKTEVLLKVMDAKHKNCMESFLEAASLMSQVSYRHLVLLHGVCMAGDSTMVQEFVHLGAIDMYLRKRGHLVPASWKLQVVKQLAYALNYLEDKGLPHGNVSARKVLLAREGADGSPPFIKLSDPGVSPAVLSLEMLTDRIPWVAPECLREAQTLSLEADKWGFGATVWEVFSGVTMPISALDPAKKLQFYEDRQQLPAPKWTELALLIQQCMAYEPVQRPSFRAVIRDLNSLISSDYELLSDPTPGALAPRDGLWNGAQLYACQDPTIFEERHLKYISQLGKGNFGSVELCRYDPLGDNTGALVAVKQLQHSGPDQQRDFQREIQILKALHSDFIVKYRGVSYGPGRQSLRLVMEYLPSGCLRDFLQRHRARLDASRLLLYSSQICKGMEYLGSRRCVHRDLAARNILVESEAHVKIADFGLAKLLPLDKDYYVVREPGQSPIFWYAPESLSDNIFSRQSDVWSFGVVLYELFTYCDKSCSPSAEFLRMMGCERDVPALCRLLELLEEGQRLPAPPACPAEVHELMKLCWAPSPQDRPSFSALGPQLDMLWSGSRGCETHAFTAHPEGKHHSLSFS
Procedure: (§1) Compounds were screened for their ability to inhibit JAK3 using a standard radioactive enzyme assay. 1.5 μL/well of a DMSO stock containing serial dilutions of a compound of the present invention (concentrations ranging from 667 μM to 46 nM) was placed in a 96 well polycarbonate plate. 50 μL per well of kinase buffer (100 mM HEPES (pH 7.4), 10 mM MgCl2, 25 mM NaCl, 1 mM DTT, and 0.01% bovine serum albumin (BSA)) containing 2 μM poly(Glu)4Tyr and 10 μM ATP was also added to the plate. To initiate the reaction, 50 μL kinase buffer containing 2 nM JAK3 enzyme was added. Final ATP concentration was 5 μM [γ-^33P] ATP (200 μCi ^33P ATP/μmol ATP (Perkin Elmer, Cambridge, Mass.). After 20 minutes at room temperature (25° C.), the reaction was stopped by adding 50 μL 20% trichloroacetic acid (TCA)/0.4 mM ATP to each well. The entire content of each well was then transferred to a 96 well glass fiber filter plate using a TomTek Cell Harvester. After washing, 60 μL scintillation fluid was added and ^33P incorporation detected using a Perkin Elmer TopCount. After removing mean background values for all of the data points the data was fit using Prism software to obtain a Ki(app). Inhibition of JAK2 was measured as above except that final poly(Glu)4Tyr concentration was 15 μM and final ATP concentration was 12 μM.

JAK2 = JAK2 (Homo sapiens, UniProt O60674); assay: JAK2 inhibition assay (radioactive enzyme assay, as for JAK3); conditions: average Ki if more than one value determined
Procedure: as §1

ROCK I (AA 6-553) = target: T2, ROCK I (AA 6-553) (Homo sapiens, UniProt Q13464); assay: ROCK inhibition assay, standard coupled enzyme system ("Enzyme"); conditions: enzyme-linked assay
T2 construct: ROCK I (AA 6-553)
Outline: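 ROCK I (AA 6-553) at 45 nM and 30 °C with 45 μM ATP and 200 μM peptide, in 100 mM HEPES pH 7.5, 10 mM MgCl2, 25 mM NaCl, 2 mM DTT, 1.5% DMSO. ADP output read by a PK/LDH coupled system: 2.5 mM PEP, 350 μM NADH, 30 μg/ml PK, 10 μg/ml LDH.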

T2 sequence (Q13464 6-553, species assumed): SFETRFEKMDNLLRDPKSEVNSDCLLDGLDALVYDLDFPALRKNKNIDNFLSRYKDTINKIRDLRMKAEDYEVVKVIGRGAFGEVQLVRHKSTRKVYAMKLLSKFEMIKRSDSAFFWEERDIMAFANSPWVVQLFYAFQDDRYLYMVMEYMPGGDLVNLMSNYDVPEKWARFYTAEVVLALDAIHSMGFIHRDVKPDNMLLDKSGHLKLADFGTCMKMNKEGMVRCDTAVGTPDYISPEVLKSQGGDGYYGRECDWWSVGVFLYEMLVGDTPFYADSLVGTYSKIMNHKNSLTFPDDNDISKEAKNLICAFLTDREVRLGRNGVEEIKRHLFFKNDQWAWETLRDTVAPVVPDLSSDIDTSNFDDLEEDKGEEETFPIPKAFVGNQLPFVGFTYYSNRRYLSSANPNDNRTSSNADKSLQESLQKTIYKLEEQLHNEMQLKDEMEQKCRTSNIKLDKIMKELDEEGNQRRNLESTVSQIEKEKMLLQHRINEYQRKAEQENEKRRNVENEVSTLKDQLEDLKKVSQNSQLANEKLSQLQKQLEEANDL
Chain of JAK2 (O60674 whole entry, species assumed): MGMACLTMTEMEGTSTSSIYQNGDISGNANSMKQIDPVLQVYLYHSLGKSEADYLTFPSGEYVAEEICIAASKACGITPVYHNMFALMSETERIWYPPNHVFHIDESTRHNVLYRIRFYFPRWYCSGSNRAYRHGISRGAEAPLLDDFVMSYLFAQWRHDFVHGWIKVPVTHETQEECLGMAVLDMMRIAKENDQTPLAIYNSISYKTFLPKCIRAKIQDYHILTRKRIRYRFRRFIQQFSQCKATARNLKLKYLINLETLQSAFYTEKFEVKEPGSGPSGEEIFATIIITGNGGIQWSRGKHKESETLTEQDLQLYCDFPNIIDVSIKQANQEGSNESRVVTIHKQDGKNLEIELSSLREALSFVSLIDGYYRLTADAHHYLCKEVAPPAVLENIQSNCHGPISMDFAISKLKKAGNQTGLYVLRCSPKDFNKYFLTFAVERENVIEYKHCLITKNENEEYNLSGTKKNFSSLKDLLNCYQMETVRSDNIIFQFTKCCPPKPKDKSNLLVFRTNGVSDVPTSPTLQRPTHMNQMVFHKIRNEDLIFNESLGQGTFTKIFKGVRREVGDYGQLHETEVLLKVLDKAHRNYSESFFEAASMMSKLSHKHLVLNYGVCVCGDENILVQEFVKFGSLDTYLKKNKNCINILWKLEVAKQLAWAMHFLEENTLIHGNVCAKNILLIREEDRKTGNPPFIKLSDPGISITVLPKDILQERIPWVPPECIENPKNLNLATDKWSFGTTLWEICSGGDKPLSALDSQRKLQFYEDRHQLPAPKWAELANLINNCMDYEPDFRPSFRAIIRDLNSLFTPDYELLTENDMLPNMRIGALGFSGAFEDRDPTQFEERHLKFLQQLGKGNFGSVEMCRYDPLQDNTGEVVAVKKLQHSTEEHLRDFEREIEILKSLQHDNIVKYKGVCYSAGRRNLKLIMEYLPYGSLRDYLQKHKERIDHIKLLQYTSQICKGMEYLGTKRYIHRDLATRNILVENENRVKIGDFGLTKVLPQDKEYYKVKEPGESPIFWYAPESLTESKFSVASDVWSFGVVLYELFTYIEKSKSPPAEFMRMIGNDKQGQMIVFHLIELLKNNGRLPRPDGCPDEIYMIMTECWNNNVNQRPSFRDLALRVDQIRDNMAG

Row | Structure (SMILES) | Ki (JAK3) [nM] | Ki (JAK2) [nM] | Ki (ROCK I (AA 6-553)) [nM]
1 | CC(=O)N1CCCN(c2cccc(-c3c[nH]c4ncc(C)cc34)n2)CC1 [Compound 40] | < 500 | < 500 | 500 to 5000
2 | CC(=O)N1[C@H](C)CN(c2cccc(-c3c[nH]c4ncc(C(=O)N5CCOCC5)cc34)n2)C[C@@H]1C [Compound 51] | 500 to 5000 | 500 to 5000 | 500 to 5000
3 | CC(=O)N1[C@H](C)CN(c2cccc(-c3c[nH]c4ncc(NC(=O)Oc5ccc(C)cc5)cc34)n2)C[C@@H]1C [Compound 61] | < 500 | < 500 | 500 to 5000
4 | CCCOC(=O)Nc1cnc2[nH]cc(-c3cccc(N4C[C@@H](C)N(C(C)=O)[C@@H](C)C4)n3)c2c1 [Compound 62] | < 500 | < 500 | < 500
5 | CC(=O)N1[C@H](C)CN(c2cccc(-c3c[nH]c4ncc(NC(=O)OCC(C)C)cc34)n2)C[C@@H]1C [Compound 63] | < 500 | < 500 | < 500
6 | CC(=O)N1[C@H](C)CN(c2cccc(-c3c[nH]c4ncc(NC(=O)OCC(C)(C)C)cc34)n2)C[C@@H]1C [Compound 64] | < 500 | < 500 | 500 to 5000
7 | CC(=O)N1[C@H](C)CN(c2cccc(-c3c[nH]c4ncc(NC(=O)OC(C)C)cc34)n2)C[C@@H]1C [Compound 65] | < 500 | < 500 | 500 to 5000
8 | COc1ccc(OC(=O)Nc2cnc3[nH]cc(-c4cccc(N5C[C@@H](C)N(C(C)=O)[C@@H](C)C5)n4)c3c2)cc1 [Compound 71] | < 500 | < 500 | 500 to 5000
9 | CCOC(=O)c1cnc2[nH]cc(-c3cccc(N4C[C@@H](C)N(C(C)=O)[C@@H](C)C4)n3)c2c1 [Compound 73] | < 500 | < 500 | < 500
10 | CC(=O)N1[C@H](C)CN(c2cccc(-c3c[nH]c4ncc(C(=O)OCC(C)C)cc34)n2)C[C@@H]1C [Compound 74] | < 500 | < 500 | < 500
11 | CC(=O)N1[C@H](C)CN(c2cccc(-c3c[nH]c4ncc(O)cc34)n2)C[C@@H]1C [Compound 77] | < 500 | < 500 | 500 to 5000
12 | CN1C2CCC1CN(c1cccc(-c3c[nH]c4ncc(Cl)cc34)n1)CC2 (stereo not drawn) [Compound 82] | < 500 | < 500 | < 500
13 | COC(=O)N1CCCN(c2cccc(-c3c[nH]c4ncc(Cl)cc34)n2)CC1 [Compound 83] | < 500 | < 500 | 500 to 5000
14 | CCOC(=O)N1CCCN(c2cccc(-c3c[nH]c4ncc(Cl)cc34)n2)CC1 [Compound 84] | < 500 | < 500 | 500 to 5000
15 | CCC(=O)N1CCN(c2cccc(-c3c[nH]c4ncc(Cl)cc34)n2)CC1 [Compound 85] | < 500 | < 500 | 500 to 5000
16 | CCCC(=O)N1CCN(c2cccc(-c3c[nH]c4ncc(Cl)cc34)n2)CC1 [Compound 86] | < 500 | < 500 | 500 to 5000
17 | COC(=O)Nc1cccc(-c2c[nH]c3ncc(Cl)cc23)n1 [Compound 87] | < 500 | < 500 | 500 to 5000
18 | CCCOC(=O)Nc1cccc(-c2c[nH]c3ncc(Cl)cc23)n1 [Compound 88] | < 500 | < 500 | 500 to 5000
19 | CC(C)CC(=O)N1CCN(c2cccc(-c3c[nH]c4ncc(Cl)cc34)n2)CC1 [Compound 89] | < 500 | < 500 | 500 to 5000
20 | CC(C)COC(=O)Nc1cccc(-c2c[nH]c3ncc(Cl)cc23)n1 [Compound 90] | < 500 | < 500 | 500 to 5000
